Measured values as given in PMC7377239, “Cardiovascular Effects of Polychlorinated Biphenyls and Their Major Metabolites” (Environmental Health Perspectives, 2020).

How the values were obtained:
HUVECs = experiment: High-content imaging cytotoxicity in HUVECs, 24 h; type: cell-based, human; conditions: HUVECs, 24 hr, 0.00 µM = 100.00
Procedure, shortened: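 Read-out: multiwavelength high-content imaging of Hoechst 33342, MitoTracker Orange and calcein AM after 24 h compound exposure of confluent HUVEC monolayers. POD values were set using a one-SD cutoff from vehicle (0.5% DMSO) means; with no concentration–response, 100μM was assigned as no observable adverse effect level.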

[1] = tested on: iCell endothelial cells (human iPSC-derived ECs); experiment: Tube formation (tubulogenesis) assay in iCell endothelial cells, 18 h; type: cell-based; conditions: iPSC-EC, 0.00 µM = 100.00
Procedure, shortened: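 Tube formation was measured by calcein AM imaging after overnight compound exposure (37°C, 0.5% DMSO vehicle) of human iPSC-derived ECs, 7,500/well, on reduced-growth-factor Geltrex in starvation medium. Vehicle-normalized data fitted to four-parameter logistic; POD set at one vehicle SD; without response, 100 μM taken as NOAEL.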

## Clc1ccc(Cl)c(-c2c(Cl)ccc(Cl)c2Cl)c1Cl [(-)-PCB 136, 2,2′,3,3′,6,6′-hexachlorobiphenyl]
HUVECs; concentration 0.01 µM
  huvec.mito.24hr: 77.23
  huvec.mitoint.24hr: 84.43
  huvec.nma.24hr: 98.77
HUVECs; concentration 0.10 µM
  huvec.mito.24hr: 130.40
  huvec.mitoint.24hr: 73.90
  huvec.nma.24hr: 86.45
HUVECs; concentration 1.00 µM
  huvec.mito.24hr: 92.50
  huvec.mitoint.24hr: 88.05
  huvec.nma.24hr: 99.68
HUVECs; concentration 10.00 µM
  huvec.mito.24hr: 30.92
  huvec.mitoint.24hr: 10.83
  huvec.nma.24hr: 50.44
HUVECs; concentration 100.00 µM
  huvec.mito.24hr: 29.50
  huvec.mitoint.24hr: 15.66
  huvec.nma.24hr: 72.40
[1]; 0.01 µM
  endo.mtl.18hr: 102.71
  endo.tlps.18hr: 139.80
  endo.tta.18hr: 138.00
  endo.ttl.18hr: 138.93
[1]; 0.10 µM
  endo.mtl.18hr: 112.13
  endo.tlps.18hr: 103.80
  endo.tta.18hr: 103.27
  endo.ttl.18hr: 116.27
[1]; 1.00 µM
  endo.mtl.18hr: 102.66
  endo.tlps.18hr: 134.14
  endo.tta.18hr: 146.36
  endo.ttl.18hr: 142.63
[1]; 10.00 µM
  endo.mtl.18hr: 114.95
  endo.tlps.18hr: 133.39
  endo.tta.18hr: 144.91
  endo.ttl.18hr: 148.25
[1]; 100.00 µM
  endo.mtl.18hr: 40.89
  endo.tlps.18hr: 14.11
  endo.tta.18hr: 1.36
  endo.ttl.18hr: 1.73
